Article PMC11192711, “Automated radiosynthesis and preclinical evaluation of two new PSMA-617 derivatives radiolabelled via [^18F]AlF^2+ method” (EJNMMI Radiopharmacy and Chemistry, 2024)

Tested on: LNCaP tumour-bearing NSG mice
Experiment: PET/CT in vivo biodistribution and tumour uptake in subcutaneous LNCaP prostate cancer xenograft model
Conditions: n = 4; for Bone (SUV mean) / Brain (SUV mean) / Colon (SUV mean) / Gall bladder (SUV mean) / Heart (SUV mean) / Kidney (SUV mean) / Liver (SUV mean) / Lung (SUV mean) / Muscle (SUV mean) / Salivary gland (SUV mean) / Small instestine (SUV mean): LNCaP NSG male mice, i.v., PET/CT; for ratio between tumour and muscle (tumour SUV max/muscle SUV mean) / uptake in the tumour expressed as SUV max: LNCaP tumour, NSG mice
Procedure: The uptake of [^18F]F-PSMA-1007 and [^18F]F-PSMA-617-NODA ([^18F]1) was compared in vivo in a xenograft model of human prostate cancer obtained using LNCaP cells which are PSMA positive, as confirmed by real time PCR-analysis (Additional file 1: S69A). LNCaP tumour-bearing NSG mice were injected i.v. with either [^18F]F-PSMA-1007 or [^18F]F-PSMA-617-NODA (~ 3.8 MBq/mouse, ~ 20 pmol for [^18F]F-PSMA-1007 and ~ 50 pmol [^18F]1). Radiotracer uptake was assessed after 10, 60 and 120 min post injection by whole-body PET/CT acquisitions.
Total body biodistribution of [^18F]F-PSMA-1007, [^18F]F-PSMA-617-NODA and [^18F]F-PSMA-617-RESCA was evaluated in vivo using imaging PET/CT. [^18F]F-PSMA-617-NODA uptake was compared to that of the [^18F]F-PSMA-1007 in a PSMA positive prostate tumour xenograft model (LNCaP). [^18F]F-PSMA-617-NODA and [^18F]F-PSMA-617-RESCA uptake were also evaluated using an orthotopic glioma model (Gli36ΔEGFR).
Animal experiments were carried out in compliance with institutional guidelines for the care and the use of experimental animals, which have been authorized by the Italian Ministry of Health (n° 378/2019-PR and 817/2021-PR). The animals were housed at constant temperature (23 °C) and relative humidity (40%) under a regular light/dark cycle with food and water available ad libitum. Seven to eight weeks old male NSG mice (Charles River Laboratories Italia s.r.l., Italy) were subcutaneously inoculated in the right flank with 5 × 10^6 of PSMA‐positive human prostate cancer cells (LNCaP) suspended in matrigel (1: 1, total volume 200 ul). The growth tumour was monitored periodically with calliper and tumour volume was calculated using the following formula: […]
When the tumour volume was about 230.8 ± 60.3 mm^3 (approximately 15 days after tumour cells inoculation), 4 animals performed an in vivo biodistribution of [^18F]F-PSMA-1007 and [^18F]F-PSMA-617-NODA, on successive but non-consecutive days, using PET/CT.
Mice were injected into a tail vein with 3.8 ± 0.1 MBq of [^18F]F-PSMA-1007, 4.0 ± 0.2 MBq of [^18F]F-PSMA-617-NODA ([^18F]1) and 3.8 ± 0.1 MBq of [^18F]F-PSMA-617-RESCA ([^18F]2), respectively.
Total body PET/CT acquisitions were performed using PET/CT tomographs dedicated to small animals, X-ß-CUBE (Molecubes, Gent, Belgium) after 10, 60 and 120 min from tracer injection. Each acquisition lasted 30 min and mice were maintained anesthetized (4% isoflurane in induction and 2% in maintenance in air) during acquisition.
Image quantification analysis was performed with PMOD 4.105 software (Zurich, Switzerland). Volumes of interest (VOIs) were drawn on peripheral organs (tumour, thoracic muscle, heart, liver, kidney, salivary glands, lung, small intestine, colon, bone, gall bladder) and on the healthy brain using CT images. For the glioma model, PET/CT images were co-registered to MRI images and two different VOIs were defined: (1) a control VOI covering the healthy left striatum (volume 4 mm^3) was drawn on the axial MR images, adjusted on the other imaging planes and then copied on the PET images of each mouse; (2) a second glioma-covering VOI was drawn in the tumour-affected brain hemisphere and centered on mice lesions.
For quantification, Standardized Uptake Value (SUV) was calculated according to the formula:
SUV = organ concentration activity [MBq/g]/(injected activity [MBq]/animal weight [g]).
The data were expressed as standardized-uptake-values (SUVmean and SUVmax) and as tumour-to-muscle (T/M) and tumour-to-blood (T/B) ratio in PCa model and as tumour-to-contralateral (T/Cl) ratio in glioma model.

**Q.** O=C(O)CC[C@H](NC(=O)N[C@@H](CCCCNC(=O)[C@H](Cc1ccc2ccccc2c1)NC(=O)c1ccc(CNC(=O)[C@H](CCC(=O)O)NC(=O)[C@H](CCC(=O)O)NC(=O)c2ccc([18F])nc2)cc1)C(=O)O)C(=O)O [[^18F]F-PSMA-1007, reference compound] was tested. Which “Bone (SUV mean)” value (10 min p.i.) did it give?
**A.** 0.36 ± 0.09

**Q.** What about the “Brain (SUV mean)” value (10 min p.i.) of the same compound?
**A.** 0.12 ± 0.02

**Q.** And the “Colon (SUV mean)” value (10 min p.i.)?
**A.** 0.35 ± 0.27

**Q.** What about the “Gall bladder (SUV mean)” value (10 min p.i.) of the same compound?
**A.** 0.99 ± 0.40

**Q.** What about the “Heart (SUV mean)” value (10 min p.i.) of the same compound?
**A.** 0.38 ± 0.09

**Q.** What about the “Kidney (SUV mean)” value (10 min p.i.) of the same compound?
**A.** 9.55 ± 2.63

**Q.** What about the “Liver (SUV mean)” value (10 min p.i.) of the same compound?
**A.** 0.50 ± 0.04

**Q.** And the “Lung (SUV mean)” value (10 min p.i.)?
**A.** 0.46 ± 0.09

**Q.** What about the “Muscle (SUV mean)” value (10 min p.i.) of the same compound?
**A.** 0.23 ± 0.03

**Q.** What about the “Salivary gland (SUV mean)” value (10 min p.i.) of the same compound?
**A.** 1.40 ± 0.25

**Q.** What about the “Small instestine (SUV mean)” value (10 min p.i.) of the same compound?
**A.** 0.60 ± 0.05

**Q.** What about the “Bone (SUV mean)” value (60 min p.i.) of the same compound?
**A.** 0.26 ± 0.09

**Q.** What about the “Brain (SUV mean)” value (60 min p.i.) of the same compound?
**A.** 0.09 ± 0.03

**Q.** And the “Colon (SUV mean)” value (60 min p.i.)?
**A.** 0.28 ± 0.14

**Q.** What about the “Gall bladder (SUV mean)” value (60 min p.i.) of the same compound?
**A.** 1.02 ± 0.43

**Q.** What about the “Heart (SUV mean)” value (60 min p.i.) of the same compound?
**A.** 0.28 ± 0.06

**Q.** What about the “Kidney (SUV mean)” value (60 min p.i.) of the same compound?
**A.** 12.04 ± 2.49

**Q.** And the “Liver (SUV mean)” value (60 min p.i.)?
**A.** 0.33 ± 0.06

**Q.** What about the “Lung (SUV mean)” value (60 min p.i.) of the same compound?
**A.** 0.40 ± 0.16

**Q.** And the “Muscle (SUV mean)” value (60 min p.i.)?
**A.** 0.20 ± 0.04

**Q.** And the “Salivary gland (SUV mean)” value (60 min p.i.)?
**A.** 1.40 ± 0.20

**Q.** What about the “Small instestine (SUV mean)” value (60 min p.i.) of the same compound?
**A.** 0.49 ± 0.12

**Q.** And the “Bone (SUV mean)” value (120 min p.i.)?
**A.** 0.21 ± 0.08

**Q.** What about the “Brain (SUV mean)” value (120 min p.i.) of the same compound?
**A.** 0.10 ± 0.03

**Q.** What about the “Colon (SUV mean)” value (120 min p.i.) of the same compound?
**A.** 0.26 ± 0.08

**Q.** What about the “Gall bladder (SUV mean)” value (120 min p.i.) of the same compound?
**A.** 0.75 ± 0.48

**Q.** And the “Heart (SUV mean)” value (120 min p.i.)?
**A.** 0.24 ± 0.03

**Q.** And the “Kidney (SUV mean)” value (120 min p.i.)?
**A.** 14.49 ± 1.41

**Q.** And the “Liver (SUV mean)” value (120 min p.i.)?
**A.** 0.21 ± 0.02

**Q.** And the “Lung (SUV mean)” value (120 min p.i.)?
**A.** 0.31 ± 0.07

**Q.** And the “Muscle (SUV mean)” value (120 min p.i.)?
**A.** 0.15 ± 0.05

**Q.** What about the “Salivary gland (SUV mean)” value (120 min p.i.) of the same compound?
**A.** 1.58 ± 0.12

**Q.** What about the “Small instestine (SUV mean)” value (120 min p.i.) of the same compound?
**A.** 0.30 ± 0.07

**Q.** What about the “ratio between tumour and muscle (tumour SUV max/muscle SUV mean)” value (60 min p.i.) of the same compound?
**A.** 7.46 ± 1.55

**Q.** What about the “uptake in the tumour expressed as SUV max” value (60 min p.i.) of the same compound?
**A.** 1.48 ± 0.29

**Q.** And the “ratio between tumour and muscle (tumour SUV max/muscle SUV mean)” value (120 min p.i.)?
**A.** 11.99 ± 6.16

**Q.** And the “uptake in the tumour expressed as SUV max” value (120 min p.i.)?
**A.** 1.60 ± 0.44
